Assays:
[1] = test system: HA-VP16-EsaR fusion (pMON53005); test: Transient GUS reporter assay in transfected carrot protoplasts with VP16-EsaR effector; assay type: cell-based, Erwinia sterwartii; conditions: 25 [i M] OOHL, 36 hrs
Procedure: Plasmids for transfection were isolated and purified using Megaprep plasmid DNA isolation kit (Qiagen). Carrot protoplasts for transfections were prepared from carrot cell suspension culture and transfected with purified DNA as described (Ulmasov et al., Plant Cell 7:1611-1623, 1995). Briefly, 10 ì g of the reporter plasmid and 5 ìg of the effector plasmid were incubated with 10^6 protoplasts for five minutes at the room temperature in the presence of polyethylene glycol-calcium solution. After diluting approximately 10-fold with the culture medium, the protoplasts were incubated in the dark for 36 hours either in the presence or absence of the inducer 3-oxohexanoyl-homoserine lactone (OHHL, racemic mixture of the L- and D-isomers, purchased from Sigma Chemical Co., St Louis, MO). After incubation, protoplasts were collected by low-speed centrifugation, lysed and the level of GUS activity was measured using fluorometric GUS assay (Jefferson et al., EMBO J. 6:3901-3907, 1987).
Ten µg of the reporter plasmid (pMON53031), and indicated amount of the 35S effector plasmid per reaction was used for transfection in triplicate.

[2] = test system: TraM; conditions: 12.5 µM C8-AHL; reporter TraA8(3X), cl.4 (60 µg) + TraM
From the text: Plasmids for transfection were isolated and purified using Megaprep plasmid DNA isolation kit (Qiagen).

[3] = test system: VP16-TraR fusion (pMON53077); test: GUS activity in transgenic Arabidopsis plants carrying GUS reporter and 35S-VP16-TraR activator genes; assay type: in vivo, Agrobacterium tumefaciens; conditions: detached caulline leaves, 24 hours in MS medium with 100 µM HSL
Procedure: Transgenic Arabidopsis plants containing TraA8(3X)-GUS reporter and 35S-VP16-TraR activator genes (pMON53077) were analyzed for induction of GUS activity. […] GUS assays were conducted as described by Jefferson et al. (supra).
In addition, detached leaves incubated for 24 hours in MS medium with or without 100 µM HSL were visualized for induction of GUS activity after staining.

[4] = test system: TraR (expressed from GAL1 galactose inducible promoter, pGAL415TraR); test: β-galactosidase reporter assay (chemiluminescent) in yeast expressing TraR; assay type: cell-based, Agrobacterium tumefaciens; conditions: 50µM C8-HSL, 5 hrs of growth on galactose; strain YPH499, cl.5 and 6; minimal promoter with 3 copies of TraA8 element
[5] = molecular target: T1, HA-VP16-TraR fusion (TraR from Agrobacterium strain A348 fused to VP16 activation domain; pMON53030) (UniProt P06492+P33905); test: Transient GUS reporter assay in transfected carrot protoplasts with VP16-TraR effector; assay type: cell-based, Agrobacterium tumefaciens; set-up: + inducer (average of the GUS activities) / + inducer (GUS activity, average) / GUS activity, average (with AHL or analog at the stated concentration) / GUS activity, average (+ inducer) / GUS activity, average: unit not given here; conditions: for + inducer (GUS activity, average): 12.5 µM C8-AHL; for GUS activity, average: 25 µM of the AHL or analog; for + inducer (average of the GUS activities): 36 hrs
T1 construct: PCR fragments containing open reading frames are cloned into an expression construct; expressed in transfected cells; host or cells: carrot protoplasts from cell suspension culture, transient transfection
From the text: Carrot protoplasts were transfected with the TraA8 (4X)- GUS reporter construct with the 35S-VP16-TraR activator gene and tested for GUS induction by application of wild type AHL and the various AHL analogs described in Example 8. Table 8: Transient assays in carrot protoplasts of AHL analogs

For “3-oxooctanoyl-L-homoserine lactone [C8-HSL]”, the “+ inducer (average of the GUS activities)” value ([1]; pMON53035 (lasB box 3X-GUS) + pMON53005 60 µg) was 4.9, the “+ inducer (average of the GUS activities)” value ([1]; reporter pMON53031, pMON53005 60 µg) was 764.1 and the “+ inducer (GUS activity, average)” value [2] was 98.0. For the same substance, the “induction of GUS activity by histochemical GUS staining” value [3] was “uniform induced activity”, the “induction of β-gal activity in cell extracts” value [4] was “strong induction” and the “GUS activity, average ('- inducer')” value ([5]; 1 µM of the AHL or analog, reporter TraA8(4X)-GUS + 35S-VP16-TraR) was 1263.2. The “GUS activity, average (with AHL or analog at the stated concentration)” value ([5]; 5 µM of the AHL or analog, reporter TraA8(4X)-GUS + 35S-VP16-TraR) was 3018.7, the “+ inducer (GUS activity, average)” value ([5]; reporter Tra box(3X), cl.5, second transfection) was 1576.2 and the “+ inducer (GUS activity, average)” value ([5]; reporter TraA1 (3X), cl.35, second transfection) was 1560.4. For the same substance, the “+ inducer (GUS activity, average)” value ([5]; reporter TraA2(3X), cl.43, second transfection) was 2057.1, the “+ inducer (GUS activity, average)” value ([5]; reporter TraA3(3X), cl.4, second transfection) was 100.1 and the “+ inducer (GUS activity, average)” value ([5]; reporter TraA4(3X), cl.23, second transfection) was 109.6. The “+ inducer (GUS activity, average)” value ([5]; reporter TraA5(3X), cl.2, second transfection) was 82.3, the “+ inducer (GUS activity, average)” value ([5]; reporter TraA6(3X), cl.21, second transfection) was 3.2 and the “+ inducer (GUS activity, average)” value ([5]; reporter TraA7(3X), cl.15, second transfection) was 236.8. For the same substance, the “+ inducer (GUS activity, average)” value ([5]; reporter TraA8(3X), cl.4 (25µg) + TraR + CAT) was 762.2, the “+ inducer (GUS activity, average)” value ([5]; reporter TraA8(3X), cl.4 (25µg) + TraR + TraM co-transfected) was 11.8 and the “+ inducer (GUS activity, average)” value ([5]; reporter TraA8(3X), cl.4 (25µg) + TraR + TraS co-transfected) was 248.3. For the same substance, the “+ inducer (GUS activity, average)” value ([5]; reporter TraA8(3X), cl.4 (60 µg), effector printed as TraR) was 1665.3, the “+ inducer (GUS activity, average)” value ([5]; reporter TraA8(3X), cl.4, second transfection) was 1759.1 and the “+ inducer (GUS activity, average)” value ([5]; reporter TraA8(4X), cl. 16 + HA-VP16-TraR) was 1015.3. The “+ inducer (GUS activity, average)” value ([5]; reporter TraA10(3X), cl.17, second transfection) was 641.1, the “+ inducer (GUS activity, average)” value ([5]; reporter TraA-1(3X), cl.14, second transfection) was 26.7 and the “+ inducer (GUS activity, average)” value ([5]; reporter tra box (6X), cl.7, first transfection) was 987.4. The “+ inducer (GUS activity, average)” value ([5]; reporter traA1(3X), cl.35, first transfection) was 1941.5, the “+ inducer (GUS activity, average)” value ([5]; reporter traA2(3X), cl.43, first transfection) was 2281.6 and the “+ inducer (GUS activity, average)” value ([5]; reporter traA3(3X), cl.4, first transfection) was 116.5. For the same substance, the “+ inducer (GUS activity, average)” value ([5]; reporter traA4(3X), cl.23, first transfection) was 122.8, the “+ inducer (GUS activity, average)” value ([5]; reporter traA5(3X), cl.2, first transfection) was 20.5 and the “+ inducer (GUS activity, average)” value ([5]; reporter traA6(3X), cl.21, first transfection) was 64.6. For the same substance, the “+ inducer (GUS activity, average)” value ([5]; reporter traA7(3X), cl.15, first transfection) was 234.8, the “+ inducer (GUS activity, average)” value ([5]; reporter traA8(3X), cl.4, first transfection) was 888.0 and the “+ inducer (GUS activity, average)” value ([5]; reporter traA9(3X), cl.8, first transfection) was 63.7. For the same substance, the “GUS activity, average (+ inducer)” value ([5]; 12.5 µM of the AHL or analog, reporter TraA8(4X)-GUS + 35S-VP16-TraR) was 4142.8, the “GUS activity, average” value ([5]; reporter TraA8(4X)-GUS + 35S-VP16-TraR) was 7642.9 and the “GUS activity, average” value ([5]; reporter TraA8(4X)-GUS + 35S-VP16-TraR, listed as CB-HSL) was 7523.9. The “GUS activity, average (+ inducer)” value ([5]; 75 µM of the AHL or analog, reporter TraA8(4X)-GUS + 35S-VP16-TraR) was 7975.7, the “+ inducer (average of the GUS activities)” value ([5]; 0.1 [i M] OOHL, reporter pMON53031, pMON53030 60 µg) was 355.9 and the “+ inducer (average of the GUS activities)” value ([5]; 0.5 [i M] OOHL, reporter pMON53031, pMON53030 60 µg) was 698. The “+ inducer (average of the GUS activities)” value ([5]; 1 [i M] OOHL, reporter pMON53031, pMON53030 60 µg) was 458.2, the “+ inducer (average of the GUS activities)” value ([5]; 2.5 [i M] OOHL, reporter pMON53031, pMON53030 60 µg) was 1487.8 and the “+ inducer (average of the GUS activities)” value ([5]; 5 [i M] OOHL, reporter pMON53031, pMON53030 60 µg) was 1474.2. The “+ inducer (average of the GUS activities)” value ([5]; 12.5 [i M] OOHL, reporter pMON53031, pMON53030 60 µg) was 1526.2, the “+ inducer (average of the GUS activities)” value ([5]; 25 [i M] OOHL, reporter pMON53031, pMON53030 30 µg + CAT) was 215.7 and the “+ inducer (average of the GUS activities)” value ([5]; 25 [i M] inducer (OOHL, or C6), reporter pMON53031, pMON53030 60 µg) was 1393.2. For the same substance, the “+ inducer (average of the GUS activities)” value ([5]; 50 [i M] OOHL, reporter pMON53031, pMON53030 60 µg) was 1595.5 and the “+ inducer (average of the GUS activities)” value ([5]; 100 [i M] OOHL, reporter pMON53031 (traII box 3X-GUS) 10 µg, pMON53030 60 µg) was 1446.4.
